The values below come from ChEMBL document CHEMBL1134239, “Synthesis and antitumor activity of novel paclitaxel-chlorambucil hybrids” (Bioorg Med Chem Lett, 2001).

Assay [1] deals with Tubulin alpha chain (Sus scrofa) (UniProt P02550). Nature of the assay: Compound was tested in vitro for inhibition of tubulin polymerization, expressed as ratio to that obtained for paclitaxel. It is filed as functional.
The subject of assay [2] is M109. Nature of the assay: Compound was tested in vivo against M109 using Madison murine lung carcinoma (M109) tumor model. It is filed as functional, Mus musculus.
Assay [3] relates to HCT-116. The experiment in a line: Compound was tested for cytotoxicity against human colon tumor cell line (HCT116). It is filed as functional, cell-based.

Molecules are shown by their SMILES.

Sequence of Tubulin alpha chain (Sus scrofa) (P02550 whole entry, looked up): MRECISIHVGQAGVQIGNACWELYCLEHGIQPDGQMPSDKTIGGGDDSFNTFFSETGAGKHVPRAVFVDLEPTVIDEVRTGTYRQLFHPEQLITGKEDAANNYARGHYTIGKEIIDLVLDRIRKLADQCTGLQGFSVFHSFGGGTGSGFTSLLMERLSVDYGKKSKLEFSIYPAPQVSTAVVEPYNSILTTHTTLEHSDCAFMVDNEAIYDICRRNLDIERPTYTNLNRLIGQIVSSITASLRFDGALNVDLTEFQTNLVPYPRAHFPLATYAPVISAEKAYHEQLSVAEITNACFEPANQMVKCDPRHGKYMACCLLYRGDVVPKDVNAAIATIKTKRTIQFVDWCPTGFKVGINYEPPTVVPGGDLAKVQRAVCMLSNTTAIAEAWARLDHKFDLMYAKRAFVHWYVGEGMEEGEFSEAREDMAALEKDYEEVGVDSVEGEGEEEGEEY

With `CC(=O)O[C@H]1C(=O)[C@@]2(C)C([C@H](OC(=O)c3ccccc3)[C@]3(O)C[C@H](OC(=O)[C@H](O)[C@@H](NC(=O)c4ccccc4)c4ccccc4)C(C)=C1C3(C)C)[C@]1(OC(C)=O)CO[C@@H]1C[C@@H]2OCOC(=O)N(CCOC(=O)CCCc1ccc(N(CCCl)CCCl)cc1)CCOC(=O)CCCc1ccc(N(CCCl)CCCl)cc1` (some centres undefined), in assay [1], the Tubulin polymerization is 70. The T/C in assay [2] was 224%. Also, the IC50 in assay [3] amounted to 0.024 µM.

In the case of `CC(=O)O[C@H]1C(=O)[C@@]2(C)C([C@H](OC(=O)c3ccccc3)[C@]3(O)C[C@H](OC(=O)[C@H](O)[C@@H](NC(=O)c4ccccc4)c4ccccc4)C(C)=C1C3(C)C)[C@]1(OC(C)=O)CO[C@@H]1C[C@@H]2OCOC(=O)CCCc1ccc(N(CCCl)CCCl)cc1` (some centres undefined), the Tubulin polymerization in assay [1] turned out to be 62. Moreover, in assay [2], the T/C is given as 155%. The same compound returned an IC50 in assay [3] of 0.0046 µM.

Turning to `CC(=O)O[C@H]1C(=O)[C@@]2(C)C([C@H](OC(=O)c3ccccc3)[C@]3(O)C[C@H](OC(=O)[C@H](O)[C@@H](NC(=O)c4ccccc4)c4ccccc4)C(C)=C1C3(C)C)[C@]1(OC(C)=O)CO[C@@H]1C[C@@H]2OC(=O)CCCc1ccc(N(CCCl)CCCl)cc1` (some centres undefined), the Tubulin polymerization in assay [1] was found to be 53. In assay [2], this compound returned a T/C of 127%. In assay [3], this compound had a concentration for half-maximal inhibition (IC50) of 0.161 µM.

Consider `CC(=O)OCCN(CCOC(C)=O)C(=O)OCO[C@H]1C[C@H]2OC[C@@]2(OC(C)=O)C2[C@H](OC(=O)c3ccccc3)[C@]3(O)C[C@H](OC(=O)[C@H](O)[C@@H](NC(=O)c4ccccc4)c4ccccc4)C(C)=C([C@@H](OC(C)=O)C(=O)[C@@]21C)C3(C)C` (some centres undefined), for which the Tubulin polymerization in assay [1] was determined as 6.5. The T/C in assay [2] is 17%. In assay [3], this compound yielded a concentration for half-maximal inhibition (IC50) of 0.0039 µM.

On to `CC(=O)O[C@H]1C(=O)[C@@]2(C)[C@H]([C@H](OC(=O)c3ccccc3)[C@]3(O)C[C@H](OC(=O)[C@H](O)[C@@H](NC(=O)c4ccccc4)c4ccccc4)C(C)=C1C3(C)C)[C@]1(OC(C)=O)CO[C@@H]1C[C@@H]2O` [PACLITAXEL], for which the Tubulin polymerization in assay [1] amounted to 1. In addition, the T/C in assay [2] came to 246%.

For orientation: T/C means the result in the treated group divided by that in the control group, in per cent. What is called IC50 is the point on the concentration scale where inhibition reaches its midpoint.
